Laboratory results: US9187518B2, “Antiangiogenic brassinosteroid compounds” (CONSEJO NACIONAL DE INVESTIGACIONES CIENTIFICAS Y TECNICAS …, priority 2011, dated 2015)

What was measured:
IL-6 = IL-6 secretion in epithelial cells (ELISA); format: cell-based, human
TNF-α = TNF-α secretion in LPS-activated macrophages; format: cell-based; details: Macrophage, read-out: inhibitory concentration 50% (IC50), TNF-α secretion
VEGF promoter = experiment: VEGF expression (pVEGF-LUC reporter) in J774A.1 cells; format: cell-based, murine
Source text: The expression vectors pVEGF-LUC (encoding firefly luciferase) and pβ-gal were kindly donated by members of the research group of Dr. Arzt (FCEyN, UBA, Argentina).
J774A.1 cells grown to confluence in 6-well micro-plates were transfected with […] of pVEGF-LUC and pβ-gal plasmids diluted in the Opti MEM medium, without serum and antibiotics, and in the presence of lipofectamine (DNA lipofectamine TM 2000) as a reagent for transfection, according to the manufacturer's instructions. After 4 to 6 h of incubation at 37° C. in 5% CO2 atmosphere, the medium was discarded and replaced by fresh Opti MEM with 10% FBS, without antibiotics, and incubated at 37° C. in atmosphere 5% CO2 for 24 h.
The medium was discarded and cells were stimulated with 100 ng/ml LPS and 1 ng/ml of IL-6 in Opti MEM medium with 10% FBS. After 8 h and 16 h stimulation, the medium was discarded and the cells were lifted by scrapping in 0.1 ml per well of 1× lysis buffer. The samples were stored at −70° C. until processing.
In order to measure luciferase activity, 20 μl of each sample were mixed with 80 μl of substrate for firefly luciferase and measured in a luminometer. In the same samples, β-gal activity was measured in 96-well microplates. To do this, 20 μl of each sample were mixed with 80 μl of substrate for β-galactosidase and incubated at 37° C. until color developed. The absorbances of these mixtures were read in an ELISA reader at 450 nm.
We determined the expression of luciferase as a reporter of VEGF promoter activity values obtained by normalizing the against β-gal activity for each sample.
Thus, J774A.1 cells grown in 6-well microplates were transfected with plasmids pVEGF-LUC and pβ-gal. At 24 h post-transfection, cells were stimulated with 100 ng/ml of LPS and […], in the absence and presence of […] of Compound 1. Then, we measured the expression of VEGF and β-gal in the harvested samples and determined the expression of luciferase as a reporter of VEGF promoter activity, by normalizing the values obtained with those of β-gal activity.

NF-κB p65 subunit = experiment: NF-κB p65 nuclear translocation in HSV-1 infected IOBA-NHC and HCLE cells (IFI); format: cell-based, human; details: 40 μM
Description: IOBA-NHC and HCLE cells monolayers grown on coverslips in 24-well plates were infected with 0.2 ml of HSV-1 KOS (m.o.i.=1) and incubated 1 h at 37° C. Then, the inoculums were removed and cells were coated with a DMEM/F12 without SFB, for 24 h at 37° C.
After incubation, cells were fixed in methanol at −20° C. for 10 min, and processed for indirect immunofluorescence (IFI) with antibodies directed against the glycoprotein D (gD) of HSV-1 and/or the p65 subunit of NF-κB. […]
The images obtained with a 40× magnification were imported into NIH Image J 1.34s program (designed by Wayne Rasband, NIMH, Bethesda). […] We analyzed the total and nuclear fluorescence of the individual cells and a mean fluorescence density was obtained for each. To compare the distribution of fluorescence within the cell, the results were analyzed in a spreadsheet (Excel®). The total fluorescence intensity or nuclear density was calculated as the total or nuclear average per total or nuclear area, respectively. Then, we calculated the percentage of nuclear intensity or the percentage of nuclear intensity with respect to the total intensity for each cell. Non-stimulated cells were processed to establish a baseline of nuclear fluorescence (cut-off value). […]

HUVEC cells = experiment: Capillary tube formation on a Matrigel; format: cell-based, human; details: for reduction of tube formation vs untreated control: not statistically significant
Description: The formation of capillary tube like structures by HUVEC cells was analyzed on 24-well cell culture plates coated with an extracellular membrane matrix (Matrigel; BD Biosciences).
Matrigel was thawed at 4° C. Using precooled plates and tips, 100 μl/well of Matrigel was distributed and allowed to gelify at 37° C. for at least 30 min. Cells were seeded on the polymerized Matrigel (5 to 8×10^4 cells/well). The plate was incubated at 37° C., and tube formation was observed under a optic inverted microscope. Digital pictures were taken at different times with a camera. Tubular structures were quantified by manual counting of low power fields (25×) and inhibition percentage was expressed using untreated wells as 100%.
The formation of capillary tube-like structures by HUVEC cells was analyzed on 24-well cell culture plates coated with an extracellular membrane matrix (Matrigel; BD Biosciences). Matrigel was thawed at 4° C. Using precooled plates and tips, 100 μl/well of Matrigel was distributed and allowed to gelify at 37° C. for at least 30 min. Cells were seeded on the polymerized Matrigel (5 to 8×10^4 cells/well) in absence and presence of concentrations of 20 μM and 40 μM of each compound. The plate was incubated at 37° C., and tube formation was observed under an optic inverted microscope. Compound 1 was used as positive control.

Structure (SMILES): CC[C@@H](C(C)C)[C@H](O)[C@@H](O)[C@@H](C)[C@H]1CC[C@H]2[C@@H]3CCC4=CC(=O)CC[C@]4(C)[C@H]3CC[C@]12C [Compound 1, (22S,23S)-22,23-dihydroxystigmast-4-en-3-one]
- IL-6 release (IL-6; HSV-1 infected HCLE cells, 40 μM, 24 h, vs infected control): did not elicit any change
- IL-6 release (IL-6; HSV-1 infected IOBA-NHC cells, 40 μM, 24 h, vs infected control): did not elicit any change
- IL-6 release (IL-6; uninfected treated cells, compound alone): did not induce IL-6 release by itself
- IC50 (TNF-α): 7 µM
- VEGF expression (luciferase normalized to β-gal, VEGF/β-gal) (VEGF promoter; 100 ng/ml LPS 8 h, Compound 1 (stimulated untreated 93201.5±26770.4)): 22098.5±4052.4
- VEGF expression (luciferase normalized to β-gal, VEGF/β-gal) (VEGF promoter; IL-6 16 h, Compound 1 (stimulated untreated 30929.5±5464)): 17900±2689.7
- VEGF expression (luciferase normalized to β-gal) (VEGF promoter; no stimulus, compound alone, vs baseline): did not induce the expression of VEGF
- percentage of cells exhibiting NF-κB translocation to the nucleus (NF-κB p65 subunit; HCLE cells infected with HSV-1 (m.o.i.=1)): 5.7%
- percentage of cells exhibiting NF-κB translocation to the nucleus (NF-κB p65 subunit; IOBA-NHC cells infected with HSV-1 (m.o.i.=1)): 22.2±1.2%
- reduction of tube formation vs untreated control (HUVEC cells; 2.5 μM, 24 h): 17.3%
- reduction of tube formation vs untreated control (HUVEC cells; 5 μM, 24 h): 25.9%
- reduction of the tube-like network (HUVEC cells; 10 μM, 24 h): 59.8%
- formation of capillary tube like structures (HUVEC cells; 20 μM and 40 μM, comparative assay): showed inhibitory activity
- reduction of the tube-like network (HUVEC cells; 20 μM, 24 h): 90.7%
- inhibition of tube formation (HUVEC cells; 50 μM, 24 h): complete inhibition
- inhibition of tube formation (HUVEC cells; 100 μM, 24 h): complete inhibition
- inhibition at 40 µM (HUVEC cells; Homo sapiens, HUVEC, 40 μM, 24 h): 93.9%
